Emission maximum data for 14 molecules are collected here from the Deep4Chem optical property database.

The data set in a line: solvent given as SMILES.

On to `Oc1ccccc1/N=C/c1ccccc1Oc1ccccc1`, for which the emission maximum reads like this: (in C1CCCCC1) 413 nm; (in C1CCOC1) 412 nm; (in C1COCCO1) 410 nm; (in CC#N) 410 nm; (in CC(C)=O) 410 nm; (in CC(C)CO) 409 nm. The emission maximum by setting is: (in CC(C)O) 406 nm; (in CCCCC) 425 nm; (in CCCCCCCCO) 414 nm; (in CCCCCCCO) 410 nm; (in CCCCCCO) 410 nm; (in CCCCO) 395 nm. For the same molecule, the emission maximum (in CCCCOC(C)=O) stood at 409 nm; the emission maximum (in CCCO) is 410 nm; the emission maximum (in CCO) turned out to be 408 nm; the emission maximum (in CCOC(C)=O) is on record as 400 nm; the emission maximum (in CCOCC) is 420 nm; the emission maximum (in CN(C)C=O) worked out at 418 nm. Further, the emission maximum runs as follows: (in CO) 414 nm; (in CS(C)=O) 410 nm; (in Cc1ccccc1) 411 nm; (in Cc1ccccc1C) 412 nm; (in ClC(Cl)Cl) 410 nm; (in ClCCl) 415 nm. Further, the emission maximum is, setting by setting: (in N#Cc1ccccc1) 410 nm; (in OCCO) 415 nm; (in c1ccccc1) 410 nm.

On to `CCC1=C(C)C(=O)n2c1cc1c(c(C)c(C(=O)OCC(C)C)n1CC(C)C)c2=O`, for which the emission maximum is, setting by setting: (in C1CCCCC1) 437 nm; (in CO) 498 nm; (in CS(C)=O) 479 nm; (in ClC(Cl)Cl) 457 nm; (in c1ccccc1) 446 nm.

Turning to `CC(C)(C)c1ccc(-c2nc3c4ccc(-c5ccc6ccc7cccc8ccc5c6c78)cc4c4cc(-c5ccc6ccc7cccc8ccc5c6c78)ccc4c3n2-c2ccc(C(C)(C)C)cc2)cc1`, the emission maximum is on record as 442 nm (in C1CCOC1); 432 nm (in C1COCCO1); 460 nm (in CC#N); 428 nm (in CCCCCC); 427 nm (in CCCCOCCCC); 428 nm (in CCN(CC)CC). The molecule further gave an emission maximum (in CCOC(C)=O) of 440 nm; an emission maximum (in CCOCC) of 432 nm; an emission maximum (in CN(C)C=O) of 459 nm; an emission maximum (in Cc1ccccc1) of 433 nm; an emission maximum (in ClC=C(Cl)Cl) of 437 nm; an emission maximum (in ClCCl) of 450 nm.

For `CC1=CC(C)=[N+]2C1=C(c1ccccc1)c1c(C)c(-c3cccs3)c(C)n1[B-]2(F)F`, the emission maximum was found to be 600 nm (in CO), 591 nm (in Cc1ccccc1) and 594 nm (in ClCCl).

As for `O=S1(=O)C(c2ccsc2)=C(c2ccsc2)c2ccccc21`, the emission maximum (in C1CCOC1) worked out at 433 nm.

Consider `CC(C)(C)c1cc(/C2=C3\C=CC(=N3)/C(c3ccc(Br)cc3)=c3/cc/c([nH]3)=C(\c3ccc(Br)cc3)C3=N/C(=C(/c4cc(C(C)(C)C)cc(C(C)(C)C)c4)c4cc2c[nH]4)C=C3)cc(C(C)(C)C)c1`, for which the emission maximum (in CC(=O)N(C)C) is 716 nm.

Regarding `COc1cc(OC)cc(C2=C3C(C)=C(I)C(C)=[N+]3[B-](F)(F)n3c(/C=C/c4c[nH]c5ccccc45)c(I)c(C)c32)c1`, the emission maximum (in C1CCOC1) was 668 nm, the emission maximum (in CS(C)=O) is listed as 676 nm and the emission maximum (in ClCCl) was 661 nm.

As to `Cc1ccc(NC(=O)c2ccc(N(C)C)cc2)cc1`, the emission maximum is recorded as 465 nm (in C1CCCCC1), 532 nm (in C1CCOC1), 502 nm (in CC#N) and 518 nm (in CCOCC).

Consider `Cc1cc2ccccc2c2c1c1ccccc1n2-c1ccc(N(c2ccccc2)c2ccccc2)cc1`, for which the emission maximum by setting is: (in CCOC(C)=O) 386 nm; (in CS(C)=O) 428 nm; (in ClCCl) 404 nm.

Regarding `CC(C)(C)OC(=O)NCCCC(=O)OCc1ccc2c3cccc4cccc(c5cccc1c52)c43`, the emission maximum (in CCO) stood at 446 nm.

Molecule `N#Cc1c2oc3ccccc3oc2c(C#N)c2oc3ccccc3oc12` yielded an emission maximum (in ClC(Cl)Cl) of 475 nm.

`CCCCN1C(=O)c2ccc3c4c(Br)cc5c6c(ccc(c7c(Br)cc(c2c37)C1=O)c64)C(=O)N(CCCC)C5=O` displayed an emission maximum (in ClC(Cl)Cl) of 542 nm.

`CC(C)(C)c1cccc2c1oc1nc3oc4cc(-n5c6ccccc6c6ccccc65)ccc4c3cc12` showed an emission maximum (in ClC(Cl)Cl) of 397 nm.

In turn, `CC(=O)O[B-]1(OC(C)=O)OC(/C=C/C=C/c2ccccc2)=CC(/C=C/C=C/c2ccccc2)=[O+]1` displayed an emission maximum (in C1CCOC1) of 531 nm; an emission maximum (in CC#N) of 550 nm; an emission maximum (in CC(C)=O) of 544 nm; an emission maximum (in CS(C)=O) of 558 nm; an emission maximum (in Cc1ccccc1) of 523 nm; an emission maximum (in ClC(Cl)Cl) of 543 nm. For the same molecule, the emission maximum (in ClCCl) amounted to 545 nm.
